From publication PMC5487684, “Safety, Pharmacokinetics, and Antiviral Activity of a Novel HIV Antiviral, ABX464, in Treatment-Naive HIV-Infected Subjects in a Phase 2 Randomized, Controlled Study” (Antimicrobial Agents and Chemotherapy, 2017)

Columns and labels:
[1] = system: HIV-1; conditions: cited from earlier work
[2] = system: HIV replication in macrophages; set-up: method as in PMID 25889234; conditions: in vitro; cited from earlier work
[3] = Plasma pharmacokinetics of ABX464 and ABX464-NGlc in HIV-infected subjects; format: in vivo, human
Protocol: Plasma samples were analyzed for ABX464 and ABX464-NGlc using validated bioanalytical methods by Atlanbio (Saint Nazaire, France) according to good laboratory practices. Pharmacokinetic parameters were calculated by noncompartmental analysis (NCA), using Phoenix WinNonlin software (Pharsight Corporation) running on a personal computer. On day 1, the following PK parameters were generated: Cmax, the time to Cmax (Tmax), lag time (tlag), elimination rate constant (kel), area under the concentration-time curve (AUC) from time zero to time t (AUC0–t), AUC from time zero to infinity (AUC0–∞), apparent clearance (CL/F), and apparent volume of distribution (V/F). On the other days of PK assessment, only Cmax, Tmax, tlag, kel, and AUC0–t were generated. The secondary analysis concerned pharmacodynamic (PD) activity, as expressed by CD4 and CD8 levels and viral load across time. The HIV viral load was analyzed in the prequalified individual local study center laboratories. CD4 and CD8 cell counts were also determined in the local study center laboratories. With respect to the viral load, changes in the log-transformed viral load values between 24 h postdose and predose were calculated on each day, and a comparison between each dose level and pooled placebo data was made. Moreover, the rate of success (defined as a decrease in the viral load value of at least 0.5 log) was evaluated for each treatment (including placebo) and compared between treatments.

[4] = system: HIV replication in PBMCs; set-up: method as in PMID 25889234; conditions: in vitro; cited from earlier work

Cn1cc(-c2cccc3cc(C(=O)N=C(N)N)ccc23)cn1
Decrease in mean total HIV-1 DNA copy number in monocytes ([1]; 10 days of treatment): 2.7 fold
Reduction in mean total HIV-1 DNA copy number in monocytes ([1]; 10 days of treatment): 63%
Effect on HIV viral load in plasma or CD4 T cell count [1]: no significant effect
Treated individuals with significant reductions in total HIV-1 DNA levels within monocytes [1]: three of the six

O=C(O)[C@H]1O[C@@H](N(c2ccc(OC(F)(F)F)cc2)c2ccc3cccc(Cl)c3n2)[C@H](O)[C@@H](O)[C@@H]1O [ABX464-NGlc, ABX464-N-glucuronide]
50% inhibitory concentration in macrophage culture relative to parent drug [2]: same 50% inhibitory concentration as the parent drug
Inhibition of HIV replication in macrophage culture [2]: able to inhibit HIV replication
half-life (t1/2) ([3]; HIV-infected subjects, oral): about 100 h
Bioavailability of ABX464-NGlc in human subjects relative to mice ([3]; human, in vivo): approximately 15 fold
Cmax of the metabolite relative to that of the parent compound ([3]; plasma): approximately 160 fold
Antiviral effect on HIV replication in PBMCs [4]: no antiviral effect
